# According to US20260176267A1, “PREPARATION OF IMIDAZOPYRIDINE AND IMIDAZOPYRIDAZINE DERIVATIVES AS NOVEL DIACYLGLYCERIDE O-ACYLTRANSFERASE 2 INHIBITORS” (Merck Sharp & Dohme LLC, priority 2022, published 2026):
# Molecular target: T1, human DGAT2 (hDGAT2) (Homo sapiens, UniProt Q96PD7)
# T1 construct: made in house; host or cells: Sf-9 insect cells (baculovirus), membrane fraction
# T1 sequence (Q96PD7 1-388): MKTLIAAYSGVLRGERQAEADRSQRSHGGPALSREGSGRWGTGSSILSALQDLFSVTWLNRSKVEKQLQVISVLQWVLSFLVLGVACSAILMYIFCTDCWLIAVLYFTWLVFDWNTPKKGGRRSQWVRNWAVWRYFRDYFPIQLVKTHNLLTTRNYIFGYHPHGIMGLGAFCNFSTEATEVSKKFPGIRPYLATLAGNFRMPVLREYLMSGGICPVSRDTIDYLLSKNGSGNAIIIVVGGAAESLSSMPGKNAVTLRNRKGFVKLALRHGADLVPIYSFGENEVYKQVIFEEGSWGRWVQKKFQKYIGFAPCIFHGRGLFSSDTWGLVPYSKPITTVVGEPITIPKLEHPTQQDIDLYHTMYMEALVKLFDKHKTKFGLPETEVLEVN
# Experiment: DGAT2 Enzymatic Activity Assay
# Type: biochemical
# Details: membrane prep of Sf-9 cells expressing hDGAT2; 13C18-triolein product by LC/MS/MS; 25 μM diolein, 5 μM 13C oleoyl-CoA, rt
# How it was run: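 At room temperature, DGAT2 activity in baculovirus-infected Sf-9 membrane preps (human enzyme, untagged) is measured as formation of ^13C18-triolein. Product is extracted and measured by positive-mode LC/MS/MS, with the ratio to spiked ^13C21-triolein giving inhibition and IC50.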
row,Structure (SMILES),IC50
1,"Cc1c(Oc2ncc(Cl)cc2OCC(F)(F)F)cc(F)c2nc(C(=O)NC3(C)CCS(=O)(=O)CC3)cn12 [Example 15, 6-[[5-chloro-3-(2,2,2-trifluoroethoxy)-2-pyridyl]oxy]-8-fluoro-5-methyl-N-(4-methyl-1,1-dioxo-thian-4-yl)imidazo[1,2-a]pyridine-2-carboxamide]",11 nM
2,"Cc1c(C(=O)NC2(C)CS(=O)(=O)C2)nc2ccc(Oc3ncc(Cl)cc3OCC(F)(F)F)cn12 [Example 84, 6-[[5-chloro-3-(2,2,2-trifluoroethoxy)-2-pyridyl]oxy]-3-methyl-N-(3-methyl-1,1-dioxo-thietan-3-yl)imidazo[1,2-a]pyridine-2-carboxamide]",6.2 nM
3,"Cc1c(Oc2ncc(Cl)cc2OCC(F)(F)F)ccc2nc(C(=O)NC3(C)CCS(=O)(=O)CC3)c(F)n12 [Example 142, 6-[[5-chloro-3-(2,2,2-trifluoroethoxy)-2-pyridyl]oxy]-3-fluoro-5-methyl-N-(4-methyl-1,1-dioxo-thian-4-yl)imidazo[1,2-a]pyridine-2-carboxamide]",3.5 nM
4,"CC1(NC(=O)c2nc3ccc(Oc4ncc(Cl)cc4OCC(F)F)nn3c2Cl)CS(=O)(=O)C1 [Example 176, 3-chloro-6-[[5-chloro-3-(2,2-difluoroethoxy)-2-pyridyl]oxy]-N-(3-methyl-1,1-dioxo-thietan-3-yl)imidazo[1,2-b]pyridazine-2-carboxamide]",24 nM
5,"Cc1cc(Oc2ncc(Cl)cc2OCC(F)F)nn2cc(C(=O)NC3(C)CCS(=O)(=O)CC3)nc12 [Example 173, 6-[[5-chloro-3-(2,2-difluoroethoxy)-2-pyridyl]oxy]-8-methyl-N-(4-methyl-1,1-dioxo-thian-4-yl)imidazo[1,2-b]pyridazine-2-carboxamide]",11 nM
6,"CCOc1cccnc1Oc1ccc2nc(C(=O)N[C@H]3CCOC3)cn2c1 [Example 52, 6-[(3-ethoxy-2-pyridyl)oxy]-N-[(3S)-tetrahydrofuran-3-yl]imidazo[1,2-a]pyridine-2-carboxamide]",814 nM
7,"COc1c(C(=O)NC2(C)CS(=O)(=O)C2)nc2ccc(Oc3ncc(F)cc3OCC(F)(F)F)cn12 [Example 135, 6-[[5-fluoro-3-(2,2,2-trifluoroethoxy)-2-pyridyl]oxy]-3-methoxy-N-(3-methyl-1,1-dioxo-thietan-3-yl)imidazo[1,2-a]pyridin-1-ium-2-carboxamide;2,2,2-trifluoroacetate]",62 nM
8,"CCOc1cccnc1Oc1ccc2nc(C(=O)N[C@H]3CC[C@](OC)(C(F)(F)F)CC3)cn2c1 [Example 26, 6-[(3-ethoxy-2-pyridyl)oxy]-N-[4-methoxy-4-(trifluoromethyl)cyclohexyl] imidazo[1,2-a]pyridine-2-carboxamide]",10 nM
9,"Cc1c(Oc2ncc(F)cc2OCC(F)(F)F)ccc2nc(C(=O)NC3(C)CCS(=O)(=O)CC3)cn12 [Example 34, 6-[[5-fluoro-3-(2,2,2-trifluoroethoxy)-2-pyridyl]oxy]-5-methyl-N-(4-methyl-1,1-dioxo-thian-4-yl)imidazo[1,2-a]pyridine-2-carboxamide]",2.8 nM
10,"Cc1cc2nc(C(=O)NC3(C)CCS(=O)(=O)CC3)cn2nc1Oc1ncc(Cl)cc1OCC(F)F [Example 168, 6-((5-Chloro-3-(2,2-difluoroethoxy)pyridin-2-yl)oxy)-7-methyl-N-(4-methyl-1,1-dioxidotetrahydro-2H-thiopyran-4-yl)imidazo[1,2-b]pyridazine-2-carboxamide]",1 nM
11,"CCOc1cccnc1Oc1ccc2nc(C(=O)Nc3ccccc3)cn2c1 [Example 45, 6-[(3-ethoxy-2-pyridyl)oxy]-N-phenyl-imidazo[1,2-a]pyridine-2-carboxamide;2,2,2-trifluoroacetate]",168 nM
12,"CC1(CNC(=O)c2cn3cc(Oc4ncc(Cl)cc4OCC(F)(F)F)ccc3n2)CCS(=O)(=O)CC1 [Example 50, 6-[[5-chloro-3-(2,2,2-trifluoroethoxy)-2-pyridyl]oxy]-N-[(4-methyl-1,1-dioxo-thian-4-yl)methyl]imidazo[1,2-a]pyridine-2-carboxamide]",174 nM
13,"Cc1c(C(=O)NC2(C)CCS(=O)(=O)CC2)nc2ccc(Oc3ncc(C#N)cc3OCC(F)(F)F)cn12 [Example 149, 6-[[5-cyano-3-(2,2,2-trifluoroethoxy)-2-pyridyl]oxy]-3-methyl-N-(4-methyl-1,1-dioxo-thian-4-yl)imidazo[1,2-a]pyridine-2-carboxamide]",33 nM
14,"CC1(NC(=O)c2nc3cc(Cl)c(Oc4nccnc4OCC(F)(F)F)nn3c2Cl)CCS(=O)(=O)CC1 [Example 177, 3,7-dichloro-N-(4-methyl-1,1-dioxo-thian-4-yl)-6-[3-(2,2,2-trifluoroethoxy)pyrazin-2-yl]oxy-imidazo[1,2-b]pyridazine-2-carboxamide]",391 nM
15,"Cc1c(C(=O)NC2(C(C)C)CCS(=O)(=O)CC2)nc2ccc(Oc3ncc(F)cc3OCC(F)(F)F)cn12 [Example 91, 6-[[5-fluoro-3-(2,2,2-trifluoroethoxy)-2-pyridyl]oxy]-N-(4-isopropyl-1,1-dioxo-thian-4-yl)-3-methyl-imidazo[1,2-a]pyridine-2-carboxamide]",22 nM
16,"CCOc1cc(Cl)cnc1Oc1ccc2nc(C(=O)NC3(C)CCS(=O)(=O)CC3)cn2c1C [Example 8, 6-[(5-chloro-3-ethoxy-2-pyridyl)oxy]-5-methyl-N-(4-methyl-1,1-dioxo-thian-4-yl)imidazo[1,2-a]pyridine-2-carboxamide]",1.4 nM
17,"Cc1c(C(=O)NC2(CC#N)CCS(=O)(=O)CC2)nc2ccc(Oc3ncc(Cl)cc3OCC(F)F)cn12 [Example 76, 6-[[5-chloro-3-(2,2-difluoroethoxy)-2-pyridyl]oxy]-N-[4-(cyanomethyl)-1,1-dioxo-thian-4-yl]-3-methyl-imidazo[1,2-a]pyridine-2-carboxamide]",1.2 nM
18,"CC1(NC(=O)c2nc3ccc(Oc4ncccc4OCC(F)(F)F)cn3c2C(N)=O)CCS(=O)(=O)CC1 [Example 133, N2-(4-methyl-1,1-dioxo-thian-4-yl)-6-[[3-(2,2,2-trifluoroethoxy)-2-pyridyl]oxy-]imidazo[1,2-a]pyridine-2,3-dicarboxamide]",28 nM
19,"CCOc1cccnc1Oc1ccc2nc(C(=O)NC3CC(C)(C)OC(C)(C)C3)cn2c1 [Example 38, 6-[(3-ethoxy-2-pyridyl)oxy]-N-(2,2,6,6-tetramethyltetrahydropyran-4-yl)imidazo[1,2-a]pyridine-2-carboxamide]",56 nM
20,"Cc1c(C(=O)NC2CS(=O)(=O)C2(C)C)nc2ccc(Oc3ncc(Cl)cc3OCC(F)F)cn12 (stereo not drawn) [Example 80, 6-[[5-chloro-3-(2,2-difluoroethoxy)-2-pyridyl]oxy]-N-(2,2-dimethyl-1,1-dioxo-thietan-3-yl)-3-methyl-imidazo[1,2-a]pyridine-2-carboxamide]",3.8 nM
21,"Cc1c(Oc2ncc(F)cc2OCC2(F)CC2)ccc2nc(C(=O)NC3(C)CCS(=O)(=O)CC3)cn12 [Example 33, 6-[[5-fluoro-3-[(1-fluorocyclopropyl)methoxy]-2-pyridyl]oxy]-5-methyl-N-(4-methyl-1,1-dioxo-thian-4-yl)imidazo[1,2-a]pyridine-2-carboxamide]",5.3 nM
22,"Cc1c(C(=O)NC2(C)CCS(=O)(=O)CC2)nc2ccc(Oc3ncc(Cl)cc3OCC(F)F)cn12 [Example 71, 6-[[5-chloro-3-(2,2-difluoroethoxy)-2-pyridyl]oxy]-3-methyl-N-(4-methyl-1,1-dioxo-thian-4-yl)imidazo[1,2-a]pyridine-2-carboxamide]",1.4 nM
23,"Cc1cnc(Oc2ccc3nc(C(=O)NC4(C)CCS(=O)(=O)CC4)c(C)n3c2)c(OCC(F)(F)F)c1 [Example 144, 3-methyl-N-(4-methyl-1,1-dioxo-thian-4-yl)-6-[[5-methyl-3-(2,2,2-trifluoroethoxy)-2-pyridyl]oxy]imidazo[1,2-a]pyridine-2-carboxamide]",8.9 nM
24,"CC1(NC(=O)c2cn3cc(Oc4ncc(Cl)cc4OCC(F)(F)F)ccc3n2)CS(=O)(=O)C1 [Example 1, 6-[[5-Chloro-3-(2,2,2-trifluoroethoxy)-2-pyridyl]oxy]-N-(3-methyl-1,1-dioxo-thietan-3-yl)imidazo[1,2-a]pyridine-2-carboxamide]",5 nM
25,"CC1(NC(=O)c2cn3nc(OCc4ncc(F)cc4OCC(F)(F)F)ccc3n2)CCS(=O)(=O)CC1 [Example 182, 6-[[5-Fluoro-3-(2,2,2-trifluoroethoxy)-2-pyridyl]methoxy]-N-(4-methyl-1,1-dioxo-thian-4-yl)imidazo[1,2-b]pyridazine-2-carboxamide]",11 nM
26,"CC1(NC(=O)c2nc3ccc(Oc4ncc(F)cc4OCC(F)(F)F)c(Cl)n3c2Cl)CCS(=O)(=O)CC1 [Example 139, 3,5-dichloro-6-[[5-fluoro-3-(2,2,2-trifluoroethoxy)-2-pyridyl]oxy]-N-(4-methyl-1,1-dioxo-thian-4-yl)imidazo[1,2-a]pyridine-2-carboxamide]",0.7 nM
27,"Cc1c(C(=O)NC2(C)CCS(=O)(=O)CC2)nc2cc(C#N)c(Oc3ncc(Cl)cc3OCC(F)(F)F)cn12 [Example 138, 6-[5-chloro-3-(2,2,2-trifluoroethoxy)pyridine-2-yl]oxy-7-cyano-3-methyl-N-(4-methyl-1,1-dioxo-thian-4-yl)imidazo[1,2-a]pyridine-2-carboxamide]",25 nM
